The values below come from ChEMBL document CHEMBL1131790, “Structure-based design and synthesis of novel thrombin inhibitors based on phosphinic peptide mimetics” (Bioorg Med Chem Lett, 1999).

The experiment has as its target Prothrombin (Homo sapiens, UniProt P00734). The experiment can be described thus: In vitro inhibitory activity against thrombin.

The structures appear in SMILES notation.

`COc1ccc(C[C@@H](NC(=O)[C@@H](Cc2ccc3ccccc3c2)NC(=O)OCc2ccccc2)P(=O)(O)c2ccccc2)cc1` displayed a 50% inhibitory concentration (IC50) of 70 µM.

`CC(=O)N[C@H](Cc1c[nH]c2ccccc12)C(=O)N[C@H](Cc1ccc(C(=N)N)cc1)P(=O)(O)c1ccccc1` came in with an IC50 of 7.5 µM.

`N=C(N)c1ccc(C[C@@H](NC(=O)[C@H](N)Cc2ccc3ccccc3c2)P(=O)(O)c2ccccc2)cc1` returned an IC50 of 0.6 µM.

In the case of `N=C(N)c1ccc(C[C@@H](NC(=O)[C@@H](Cc2ccc3ccccc3c2)NC(=O)OCc2ccccc2)P(=O)(O)c2ccccc2)cc1`, the IC50 was determined as 3.6 µM.

By IC50 is commonly meant the point on the concentration scale where inhibition reaches its midpoint. Low readings indicate inhibition by little substance, high ones a need for much substance.
